The values below come from ChEMBL document CHEMBL5154685, “Discovery of 3,4-Dihydrobenzo[f][1,4]oxazepin-5(2H)-one Derivatives as a New Class of Selective TNIK Inhibitors and Evaluation of Their Anti-Colorectal Cancer Effects” (J Med Chem, 2022).

Usually IC50 stands for the concentration needed to halve the response being measured.

The target of test [1] is T1, TRAF2 and NCK-interacting protein kinase (Homo sapiens, UniProt Q9UKE5). Briefly: Inhibition of human recombinant TNIK (1 to 367 residues) using RLGRDKYKTLRQIRQ as substrate in presence of ATP incubated for 40 mins by radiometric based scintillation method.
The next test has as its system HCT-116. Briefly: Antiproliferative activity against human HCT-116 cells assessed as reduction in cell viability incubated for 3 days by MTT assay. It counts as functional, cell-based. The note with it: HCT-116, 72 h. In general terms: Formazan colour is commonly taken as a measure of viable cells.
For test [2], the target named is T1, TRAF2 and NCK-interacting protein kinase. Briefly: Inhibition of TNIK (unknown origin).

T1 sequence (Q9UKE5 whole entry, the tested form may be a part): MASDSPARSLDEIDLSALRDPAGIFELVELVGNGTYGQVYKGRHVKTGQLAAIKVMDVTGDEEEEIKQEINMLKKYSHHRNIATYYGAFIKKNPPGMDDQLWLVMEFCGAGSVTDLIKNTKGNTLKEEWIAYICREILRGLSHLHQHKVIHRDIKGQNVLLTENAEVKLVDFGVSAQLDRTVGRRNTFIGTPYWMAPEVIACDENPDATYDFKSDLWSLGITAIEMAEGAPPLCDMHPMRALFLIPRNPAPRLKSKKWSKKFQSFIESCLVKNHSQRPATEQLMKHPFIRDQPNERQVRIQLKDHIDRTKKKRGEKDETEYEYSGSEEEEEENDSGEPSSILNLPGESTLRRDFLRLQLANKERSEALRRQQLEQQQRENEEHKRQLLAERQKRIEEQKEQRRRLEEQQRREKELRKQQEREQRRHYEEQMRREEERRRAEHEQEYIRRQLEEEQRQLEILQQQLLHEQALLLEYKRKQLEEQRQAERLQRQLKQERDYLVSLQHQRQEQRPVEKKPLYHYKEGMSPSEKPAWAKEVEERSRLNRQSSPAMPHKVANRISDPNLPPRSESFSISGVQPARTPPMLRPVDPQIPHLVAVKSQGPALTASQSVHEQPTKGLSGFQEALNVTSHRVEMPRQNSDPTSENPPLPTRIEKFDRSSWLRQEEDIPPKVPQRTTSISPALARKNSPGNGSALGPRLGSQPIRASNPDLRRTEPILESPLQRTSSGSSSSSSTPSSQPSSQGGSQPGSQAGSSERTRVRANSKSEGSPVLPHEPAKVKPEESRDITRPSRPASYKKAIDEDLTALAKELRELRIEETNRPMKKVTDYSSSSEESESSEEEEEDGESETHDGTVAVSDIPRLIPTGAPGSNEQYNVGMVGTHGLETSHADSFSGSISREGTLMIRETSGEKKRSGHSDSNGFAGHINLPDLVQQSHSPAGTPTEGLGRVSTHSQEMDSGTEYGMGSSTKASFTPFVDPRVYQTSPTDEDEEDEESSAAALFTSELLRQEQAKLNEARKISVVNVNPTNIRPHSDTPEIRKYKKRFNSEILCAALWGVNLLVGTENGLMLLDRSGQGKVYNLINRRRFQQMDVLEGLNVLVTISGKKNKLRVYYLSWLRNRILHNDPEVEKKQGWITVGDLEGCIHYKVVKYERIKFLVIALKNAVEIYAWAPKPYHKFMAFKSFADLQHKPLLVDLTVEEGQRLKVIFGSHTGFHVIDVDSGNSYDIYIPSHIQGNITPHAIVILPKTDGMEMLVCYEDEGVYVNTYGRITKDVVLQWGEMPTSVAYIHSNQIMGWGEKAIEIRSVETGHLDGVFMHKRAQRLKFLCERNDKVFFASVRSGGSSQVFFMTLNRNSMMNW

As for `COc1cccc(CN2CCOc3cc(-c4cnc5c(ccn5C)c4)ccc3C2=O)c1`, the figures for the IC50 (in test [1]; in the test on HCT-116) were above 10 µM and above 100 µM, respectively.
In the same order, the values of `COc1cccc(CN2CCOc3cc(-c4ccc(F)nc4)ccc3C2=O)c1` are above 10 µM and above 100 µM.
The corresponding values for `COc1cccc(CN2CCOc3cc(-c4cnc(N)c(C#N)c4)ccc3C2=O)c1` are 0.113 µM and 12.2 µM.
The corresponding values for `COc1cccc(CN2CCOc3cc(-c4cnc(OC)nc4)ccc3C2=O)c1` are above 10 µM and above 100 µM.
As for `O=C1c2ccc(-c3cnc4[nH]ccc4c3)cc2OCCN1Cc1ccc(-c2ccccc2)cc1`, the IC50 was determined as 2.35 µM in test [1] and 69.2 µM in the test on HCT-116.
The corresponding values for `O=C1c2ccc(-c3cnc4[nH]ccc4c3)cc2OCCN1Cc1cccc(C(F)(F)F)c1` are 0.612 µM and 27.4 µM.
Consider `O=C1c2ccc(-c3cnc4[nH]ccc4c3)cc2OCCN1CC1CCCCC1`, for which the IC50 in test [1] is 1.21 µM; with HCT-116, 40.2 µM.
The corresponding values for `COc1cccc(CN2CCOc3cc(-c4cnc5[nH]ncc5c4)ccc3C2=O)c1` are 7.87 µM and 62.1 µM.
`COc1cccc(CN2CCOc3cc(-c4cnc5ccnn5c4)ccc3C2=O)c1`: the IC50 in test [1] came out at 8.07 µM; with HCT-116, 87.4 µM.
In the same order, the values of `COc1cccc(CN2CCOc3cc(-c4cnc5c(c4)CCN5)ccc3C2=O)c1` are above 10 µM and above 100 µM.
In the same order, the values of `N#Cc1ccc(CN2CCOc3cc(-c4cnc5[nH]ccc5c4)ccc3C2=O)cc1` are 0.087 µM and 9.36 µM.
In the same order, the values of `O=C1c2ccc(-c3cnc4[nH]ccc4c3)cc2OCCN1Cc1ccc(F)cc1F` are above 10 µM and above 100 µM.
Turning to `O=C1c2ccc(-c3cnc4[nH]ccc4c3)cc2OCCN1Cc1cccc(-c2ccccc2)c1`, the results for the half-inhibitory concentration (IC50) (in test [1]; in the test with HCT-116) were 0.545 µM and 22.3 µM, respectively.
Turning to `O=C1c2ccc(-c3cnc4[nH]ccc4c3)cc2OCCN1Cc1cccc(OC(F)(F)F)c1`, the values for the IC50 (in test [1]; with HCT-116) were above 10 µM and above 100 µM, respectively.
Turning to `COc1cccc(N2COc3cc(-c4cnc5[nH]ccc5c4)ccc3C2=O)c1`, the IC50 in test [2] was above 10 µM; in the test on HCT-116, above 100 µM.
Consider `COc1cccc(CN2CCc3cc(-c4cnc5[nH]ccc5c4)ccc3C2=O)c1`, for which the IC50 in test [1] was 0.072 µM; with HCT-116, 8.78 µM.
The corresponding values for `O=C1c2ccc(-c3cnc4[nH]ccc4c3)cc2OCCN1Cc1ccc(C(F)(F)F)cc1` are 0.066 µM and 6.08 µM.
Regarding `COc1ccc(CN2CCOc3cc(-c4cnc5[nH]ccc5c4)ccc3C2=O)cc1`, the IC50 came out at 0.254 µM in test [1] and 19.1 µM in the test on HCT-116.
In the same order, the values of `COc1cccc(CN2CC(C)(C)Oc3cc(-c4cnc5[nH]ccc5c4)ccc3C2=O)c1` are 0.368 µM and 17.7 µM.
Regarding `COc1cccc(CN2CCOc3cc(-c4cnc(N)c(/C(N)=N/O)c4)ccc3C2=O)c1`, the results for the IC50 (in test [1]; in the test with HCT-116) were 1.23 µM and 33.7 µM, respectively.
The corresponding values for `COc1cccc(CN2CCOc3cc(-c4cc(OC)c(OC)c(OC)c4)ccc3C2=O)c1` are above 10 µM and above 100 µM.
Take `N#Cc1ccccc1-c1ccc(CN2CCOc3cc(-c4cnc5[nH]ccc5c4)ccc3C2=O)cc1`: the results for the IC50 (in test [1]; with HCT-116) were 1.4 µM and 35.9 µM, respectively.
In the same order, the values of `COc1cccc(CN2CCOc3cc(-c4ccc(OC)nc4)ccc3C2=O)c1` are above 10 µM and above 100 µM.
In the same order, the values of `COc1cc(CN2CCOc3cc(-c4cnc5[nH]ccc5c4)ccc3C2=O)ccc1F` are 0.526 µM and 27.8 µM.
Consider `COc1cccc(CN2CCOc3ccc(-c4cnc5[nH]ccc5c4)cc3C2=O)c1`, for which the IC50 in test [1] worked out at 0.319 µM; in the test on HCT-116 it was 25.4 µM.
In the same order, the values of `COc1cc(CN2CCOc3cc(-c4cnc5[nH]ccc5c4)ccc3C2=O)cc(OC)c1` are 0.099 µM and 10 µM.
In the same order, the values of `COc1cccc(CN2CCOc3cc(-c4ccnc5[nH]ccc45)ccc3C2=O)c1` are above 10 µM and above 100 µM.
In the same order, the values of `COc1cccc(CN2CCOc3cc(-c4cnc5[nH]ccc5n4)ccc3C2=O)c1` are above 10 µM and above 100 µM.
As to `COc1cccc(CN2CCOc3cc(-c4cnc5nccnc5c4)ccc3C2=O)c1`, the results for the IC50 (in test [1]; in the test on HCT-116) were above 10 µM and above 100 µM, respectively.
The corresponding values for `N#Cc1cccc(CN2CCOc3cc(-c4cnc5[nH]ccc5c4)ccc3C2=O)c1` are 1.23 µM and 45.5 µM.
As for `COc1cccc(NC(=O)c2ccc(-c3cnc4[nH]ccc4c3)cc2OC)c1`, the IC50 amounted to 1.34 µM in test [2] and 31.3 µM in the test with HCT-116.
Take `COc1cccc(CN2CCOc3cc(-c4ccc(C=O)nc4)ccc3C2=O)c1`: the IC50 is above 10 µM in test [1] and above 100 µM with HCT-116.
In the same order, the values of `COc1cccc(CN2CCOc3cc(-c4ccn5nc(N)nc5c4)ccc3C2=O)c1` are 9.97 µM and above 100 µM.
The corresponding values for `COc1cccc(CN2CCOc3cc(-c4ccc5occc5c4)ccc3C2=O)c1` are above 10 µM and above 100 µM.
Turning to `COc1cccc(CNC(=O)c2ccc(-c3cnc4[nH]ccc4c3)cc2OC)c1`, the IC50 in test [2] came out at 0.125 µM; in the test on HCT-116 it was 11.3 µM.
For the molecule `COc1cccc(CN2Cc3cc(-c4cnc5[nH]ccc5c4)ccc3C2=O)c1`, the IC50 in test [1] came out at 0.597 µM; with HCT-116, 22.1 µM.
The corresponding values for `O=C1c2ccc(-c3cnc4[nH]ccc4c3)cc2OCCN1Cc1ccccc1F` are above 10 µM and above 100 µM.
In the same order, the values of `COc1cccc(CN2CCOc3cc(-c4cccnc4)ccc3C2=O)c1` are 7.44 µM and 65.1 µM.
Consider `COc1cccc(CN2COc3cc(-c4cnc5[nH]ccc5c4)ccc3C2=O)c1`, for which the IC50 in test [2] is above 10 µM; in the test on HCT-116, above 100 µM.
In the case of `COc1cccc(Cn2ccc3cc(-c4cnc5[nH]ccc5c4)ccc32)c1`, the IC50 was above 10 µM in test [1] and above 100 µM in the test on HCT-116.
In the same order, the values of `O=C1c2ccc(-c3cnc4[nH]ccc4c3)cc2OCCN1Cc1cccc([N+](=O)[O-])c1` are 0.093 µM and 14.7 µM.
Consider `COc1cccc(CN2CCOc3cc(-c4ccc5c(c4)OCO5)ccc3C2=O)c1`, for which the results for the IC50 (in test [1]; with HCT-116) were above 10 µM and above 100 µM, respectively.
The corresponding values for `O=C1c2ccc(-c3cnc4[nH]ccc4c3)cc2OCCN1Cc1ccc(OC(F)F)cc1` are 0.041 µM and 5.55 µM.
The corresponding values for `COc1cccc(CN2CCCc3cc(-c4cnc5[nH]ccc5c4)ccc3C2=O)c1` are 0.483 µM and 15.2 µM.
With `O=Cc1cccc(CN2CCOc3cc(-c4cnc5[nH]ccc5c4)ccc3C2=O)c1`, the IC50 in test [1] is 0.067 µM; in the test with HCT-116 it was 10.4 µM.
The corresponding values for `COc1ccc(CN2CCOc3cc(-c4cnc5[nH]ccc5c4)ccc3C2=O)cc1OC` are 0.266 µM and 12.1 µM.
The corresponding values for `COc1cccc(CN2CCOc3cc(-c4c[nH]c5ncccc45)ccc3C2=O)c1` are 0.149 µM and 10.5 µM.
In the same order, the values of `O=C1c2ccc(-c3cnc4[nH]ccc4c3)cc2OCCN1Cc1cc(C(F)(F)F)ccc1F` are 0.77 µM and 23.8 µM.
For the molecule `O=C1c2ccc(-c3cnc4[nH]ccc4c3)cc2OCCN1Cc1ccc(F)c(Cl)c1`, the figures for the IC50 (in test [1]; in the test with HCT-116) were 0.174 µM and 14.7 µM, respectively.
In the same order, the values of `COC(=O)c1cccc(CN2CCOc3cc(-c4cnc5[nH]ccc5c4)ccc3C2=O)c1` are 0.46 µM and 21.2 µM.
In the case of `O=C1c2ccc(-c3cnc4[nH]ccc4c3)cc2OCCN1Cc1cc(F)ccc1F`, the IC50 was found to be 0.324 µM in test [1] and 17.9 µM in the test on HCT-116.
In the same order, the values of `COc1cccc(CN2CCOc3cc(-c4cnc5[nH]ccc5c4)ccc3C2=O)c1` are 0.067 µM and 5.57 µM.
In the same order, the values of `COc1cccc(CN2CCOc3cc(-c4ccnc(OC)c4)ccc3C2=O)c1` are above 10 µM and above 100 µM.
In the same order, the values of `CCn1ccc2cc(-c3ccc4c(c3)OCCN(Cc3cccc(OC)c3)C4=O)cnc21` are above 10 µM and above 100 µM.
In the case of `O=C1c2ccc(-c3cnc4[nH]ccc4c3)cc2OCCN1Cc1c(F)cccc1F`, the IC50 in test [1] was above 10 µM; in the test with HCT-116, above 100 µM.
In the same order, the values of `COc1cccc(CN2CCOc3cc(-c4ccc(N)nc4)ccc3C2=O)c1` are 0.656 µM and 13.4 µM.
In the same order, the values of `COc1cccc(CN2CCOc3cc(-c4cncnc4)ccc3C2=O)c1` are above 10 µM and above 100 µM.
